The text below walks through data of ChEMBL document CHEMBL1649542, “Outer membrane protein STM3031 (Ail/OmpX-like protein) plays a key role in the ceftriaxone resistance of Salmonella enterica serovar Typhimurium” (2009).

Format in all cases: functional, Salmonella enterica subsp. enterica serovar Typhimurium
Experiment [1] deals with Salmonella typhimurium. Description: Antibacterial activity against Salmonella enterica serovar Typhimurium R200 expressing stm3031 gene deletion mutant by CLSI M7-A7 agar dilution method. Background: In agar dilution, organisms are placed on agar that contains the substance at set levels.
Experiment [2] has as its system Salmonella typhimurium. Kind of experiment: Antibacterial activity against Salmonella enterica serovar Typhimurium 01-4 by CLSI M7-A7 agar dilution method.
For experiment [3], the system named is Salmonella typhimurium. Description: Antibacterial activity against Salmonella enterica serovar Typhimurium R200 expressing Outer membrane protein STM3031 by CLSI M7-A7 agar dilution method.
The test system of experiment [4] is Salmonella typhimurium. Kind of experiment: Antibacterial activity against Salmonella enterica serovar Typhimurium R1 expressing Outer membrane protein STM3031 after serial passage by Etest method.
Experiment [5] deals with Salmonella typhimurium. Kind of experiment: Antibacterial activity against Salmonella enterica serovar Typhimurium R5 expressing Outer membrane protein STM3031 after serial passage by Etest method.
Experiment [6] relates to Salmonella typhimurium. Description: Antibacterial activity against Salmonella enterica serovar Typhimurium R25 expressing Outer membrane protein STM3031 after serial passage by Etest method.
The test system of experiment [7] is Salmonella typhimurium. Kind of experiment: Antibacterial activity against Salmonella enterica serovar Typhimurium R70 expressing Outer membrane protein STM3031 after serial passage by Etest method.
In experiment [8] the test system is Salmonella typhimurium. Kind of experiment: Antibacterial activity against Salmonella enterica serovar Typhimurium 01-4 by Etest method.
Experiment [9] deals with Salmonella typhimurium. Description: Antibacterial activity against Salmonella enterica serovar Typhimurium R10 expressing Outer membrane protein STM3031 after serial passage by Etest method.
Where [10] appears, read: Salmonella enterica subsp. enterica serovar Typhimurium.

Converted amounts (≈) assume the structure as drawn.

`Cn1nnnc1SCC1=C(C(=O)O)N2C(=O)[C@@H](NC(=O)[C@H](O)c3ccccc3)[C@H]2SC1` [CEFAMANDOLE]: the MIC – broadly, the smallest concentration in the dilution series that meets the test's criterion for growth inhibition – was 64 µg/mL (≈ 138 µM) with Salmonella typhimurium [1], 2 µg/mL (≈ 4.32 µM) against Salmonella typhimurium [2] and > 256 µg/mL with Salmonella typhimurium [3].

As to `CO/N=C(\C(=O)N[C@@H]1C(=O)N2C(C(=O)O)=C(CSc3nc(=O)c(O)nn3C)CS[C@H]12)c1csc(N)n1` [CEFTRIAXONE], the MIC came to 2 µg/mL (≈ 3.61 µM) against Salmonella typhimurium [4]; 6 µg/mL (≈ 10.8 µM) with Salmonella typhimurium [5]; 24 µg/mL (≈ 43.3 µM) in the experiment with Salmonella typhimurium [6]; 64 µg/mL (≈ 115 µM) against Salmonella typhimurium [7]; 4 µg/mL (≈ 7.21 µM) in the experiment on Salmonella typhimurium [1]; 0.047 µg/mL (≈ 0.0847 µM) with Salmonella typhimurium [2]. In addition, the MIC with Salmonella typhimurium [8] is 0.047 µg/mL (≈ 0.0847 µM); against Salmonella typhimurium [3], > 256 µg/mL; in the experiment with Salmonella typhimurium [9], 12 µg/mL (≈ 21.6 µM).

Consider `CC(=O)OCC1=C(C(=O)O)N2C(=O)[C@@H](NC(=O)Cc3cccs3)[C@H]2SC1` [CEPHALOTHIN], for which the MIC is 128 µg/mL (≈ 323 µM) in the experiment on Salmonella typhimurium [1], 4 µg/mL (≈ 10.1 µM) against Salmonella typhimurium [2] and > 256 µg/mL against Salmonella typhimurium [3].

On to `CC[C@H]1OC(=O)[C@H](C)[C@@H](O[C@H]2C[C@@](C)(OC)[C@@H](O)[C@H](C)O2)[C@H](C)[C@@H](O[C@@H]2O[C@H](C)C[C@H](N(C)C)[C@H]2O)[C@](C)(O)C[C@@H](C)C(=O)[C@H](C)[C@@H](O)[C@]1(C)O` [ERYTHROMYCIN], for which the MIC against Salmonella typhimurium [1] stood at 2 µg/mL (≈ 2.73 µM); with Salmonella typhimurium [2], 128 µg/mL (≈ 174 µM); in the experiment with Salmonella typhimurium [3], 4 µg/mL (≈ 5.45 µM).

For the compound `CCn1cc(C(=O)O)c(=O)c2ccc(C)nc21` [NALIDIXIC ACID], the minimum inhibitory concentration (MIC) was 0.5 µg/mL (≈ 2.15 µM) against Salmonella typhimurium [1], 4 µg/mL (≈ 17.2 µM) in the experiment on Salmonella typhimurium [2] and 1 µg/mL (≈ 4.31 µM) against Salmonella typhimurium [3].

For the compound `CO[C@@H]1[C@@H](OC(N)=O)[C@@H](O)[C@H](Oc2ccc3c(O)c(NC(=O)c4ccc(O)c(CC=C(C)C)c4)c(=O)oc3c2C)OC1(C)C` [NOVOBIOCIN], the minimal inhibitory concentration (MIC) was found to be 128 µg/mL (≈ 209 µM) with Salmonella typhimurium [1], 256 µg/mL (≈ 418 µM) in the experiment with Salmonella typhimurium [2] and 256 µg/mL (≈ 418 µM) against Salmonella typhimurium [3].

For `CCN1CCN(C(=O)N[C@@H](C(=O)N[C@@H]2C(=O)N3[C@@H]2SC(C)(C)[C@@H]3C(=O)O)c2ccccc2)C(=O)C1=O` [PIPERACILLIN], the MIC is 256 µg/mL (≈ 495 µM) against Salmonella typhimurium [2] and > 256 µg/mL against Salmonella typhimurium [3].

As for `CO[C@H]1/C=C/O[C@@]2(C)Oc3c(C)c(O)c4c(O)c(c(/C=N/N5CCN(C)CC5)c(O)c4c3C2=O)NC(=O)/C(C)=C\C=C\[C@H](C)[C@H](O)[C@@H](C)[C@@H](O)[C@@H](C)[C@H](OC(C)=O)[C@@H]1C` [RIFAMPIN], the MIC with Salmonella typhimurium [1], with Salmonella typhimurium [2] and in the experiment on Salmonella typhimurium [3] was 16 µg/mL (≈ 19.4 µM) in each case.

Regarding `CN[C@@H]1[C@H](O)[C@H](NC)[C@H]2O[C@@]3(O)C(=O)C[C@@H](C)O[C@H]3O[C@@H]2[C@H]1O` [SPECTINOMYCIN], the MIC against Salmonella typhimurium [2] and in the experiment with Salmonella typhimurium [3] was > 256 µg/mL throughout.

In the case of `CN[C@@H]1[C@H](O[C@H]2[C@H](O[C@H]3[C@H](O)[C@@H](O)[C@H](N=C(N)N)[C@@H](O)[C@@H]3N=C(N)N)O[C@@H](C)[C@]2(O)C=O)O[C@@H](CO)[C@H](O)[C@H]1O` [STREPTOMYCIN], the MIC with Salmonella typhimurium [1] came out at 128 µg/mL (≈ 220 µM); against Salmonella typhimurium [2] it was 128 µg/mL (≈ 220 µM); with Salmonella typhimurium [3], 256 µg/mL (≈ 440 µM).

Regarding `CN(C)[C@@H]1C(O)=C(C(N)=O)C(=O)[C@@]2(O)C(O)=C3C(=O)c4c(O)cccc4[C@@](C)(O)[C@H]3C[C@@H]12` [TETRACYCLINE], the MIC against Salmonella typhimurium [1] is 4 µg/mL (≈ 9 µM); with Salmonella typhimurium [2] it was 8 µg/mL (≈ 18 µM); with Salmonella typhimurium [3] it was 16 µg/mL (≈ 36 µM).

GENTAMICIN: the MIC against Salmonella typhimurium [1] (setting [10]), in the experiment on Salmonella typhimurium [2] (setting [10]) and in the experiment on Salmonella typhimurium [3] (setting [10]) was 1 µg/mL each time.
